Like-named read-outs stand apart in the source and are kept apart here.
Legend:
[1] = tested on: breast cancer line T47D cells; assay: CTG (CellTiter-Glo) cell viability assay, 6×6 combo matrix, 72 h, T47D; settings: Homo sapiens;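 also: luminescence read-out after 72 h at 37 °C under 5% CO2, with medium-only wells as blanks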
Description: (§1) To measure the cell inhibition effect of compounds and synergy effect of test articles on ten (10) cell lines using standard CTG assay.
(§2) 7) Using complete cell medium, adjust the volume of the suspension to achieve a cell concentration.
(§3) b. A549, T47D, SK-OV-3, MKN45, SK-Hep-1, HT-29, Capan-1, 786-O and LNCaP cell line, for compounds and vehicle groups, the seeding density of cell lines is 3000 cells/80 µL per well. For blank groups, add 100 µL medium. For PBS groups, add 100 µL PBS.
(§4) 8) Incubate the U87MG, A549, T47D, SK-OV-3, MKN45, SK-Hep-1, HT-29, Capan-1, 786-O and LNCaP cells overnight at 37° C./5% CO2.
(§5) Solid compound of cis-platinum was solubilized in PBS to a stock solution of 3.333 mM.
(§6) Final volume is 100 µL per well at this point.
(§7) 5) Incubate the plates at 37° C./5% CO2 for 72 hours.
(§8) 1) Incubate the plates at room temperature and away from light for 30 minutes.
(§9) 3) Add 100 µL /well of CellTiter-Glo® Reagent in each well. Avoid light.
(§10) 4) Mix contents for 2 minutes on an orbital shaker.
(§11) 5) Incubate plate at room temperature for 10 minutes to stabilize the luminescent signal.
6) Read plates in Envision.

[2] = tested on: ovarian cancer line SK-OV3 cells; assay: CTG (CellTiter-Glo) cell viability assay, 6×6 combo matrix, 72 h, SK-OV-3; settings: SK-OV-3;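 also: luminescent signal read after CellTiter-Glo addition, cells exposed to compounds for 72 h at 37 °C under 5% CO2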
Description: as §1, §2
A549, T47D, SK-OV-3, MKN45, SK-Hep-1, HT-29, Capan-1, 786-O and LNCaP cell line, for compounds and vehicle groups, the seeding density of cell lines is 3000 cells/80 µL per well. For blank groups, add 100 µL medium. For PBS groups, add 100 µL PBS.
as §4, §5, §6, §7, §8, §9, §10, §11
6) Read plates in Envision.

[3] = tested on: Liver cancer line SK-HEP-1 cells; assay: CTG (CellTiter-Glo) cell viability assay, 6×6 combo matrix, 72 h, SK-Hep-1; settings: Homo sapiens;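 also: luminescent signal read after 72 h compound exposure at 37 °C under 5% CO2, with medium-only wells serving as blank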
Description: as §1, §2, §3, §4, §5, §6, §7, §8, §9, §10, §11
6) Read plates in Envision.

[4] = tested on: lung adenocarcinoma line A549 cells; assay: CTG (CellTiter-Glo) cell viability assay, 6×6 combo matrix, 72 h, A549; settings: for Relatively Cell inhibition of vehicle control(%): A549;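 as to all read-outs here: luminescent ATP readout with CellTiter-Glo after compound exposure, used to assess growth inhibition and combination synergy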
[5] = tested on: kidney cancer line 786-O cells; assay: CTG (CellTiter-Glo) cell viability assay, 6×6 combo matrix, 72 h, 786-O; settings: Homo sapiens;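 also: luminescence read-out after adding CellTiter-Glo reagent, with cells incubated at 37 °C under 5% CO2 during compound exposure, part of a ten cell line synergy study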
[6] = Homo sapiens, A549, read-out: Relatively Cell inhibition of vehicle control(%)

O=c1c(O)c(-c2cc(O)c(O)c(O)c2)oc2cc(O)cc(O)c12 [myricetin]
inhibition at 0.8 µM ([1]; read-out: Relatively Cell inhibition of vehicle control(%), T47D, 0.8 µM myricetin only (cisplatin 0)): -1.72%
inhibition at 0.8 µM ([1]; read-out: Relatively Cell inhibition of vehicle control(%), T47D, 0.8 µM myricetin only (doxorubicin 0)): 8.68%
inhibition at 0.8 µM ([1]; read-out: Relatively Cell inhibition of vehicle control(%), T47D, 0.8 µM myricetin only (taxol 0)): 6.31%
inhibition at 0.8 µM ([1]; read-out: Relatively Cell inhibition of vehicle control(%), T47D, 0.8 µM myricetin only (topotecan 0)): 1.93%
inhibition at 4 µM ([1]; read-out: Relatively Cell inhibition of vehicle control(%), T47D, 4 µM myricetin only (cisplatin 0)): -0.88%
inhibition at 4 µM ([1]; read-out: Relatively Cell inhibition of vehicle control(%), T47D, 4 µM myricetin only (doxorubicin 0)): 1.01%
inhibition at 4 µM ([1]; read-out: Relatively Cell inhibition of vehicle control(%), T47D, 4 µM myricetin only (taxol 0)): 0.2%
inhibition at 4 µM ([1]; read-out: Relatively Cell inhibition of vehicle control(%), T47D, 4 µM myricetin only (topotecan 0)): -2.25%
inhibition at 20 µM ([1]; read-out: Relatively Cell inhibition of vehicle control(%), T47D, 20 µM myricetin only (cisplatin 0)): 2.08%
inhibition at 20 µM ([1]; read-out: Relatively Cell inhibition of vehicle control(%), T47D, 20 µM myricetin only (doxorubicin 0)): 8.28%
inhibition at 20 µM ([1]; read-out: Relatively Cell inhibition of vehicle control(%), T47D, 20 µM myricetin only (taxol 0)): 5.67%
inhibition at 20 µM ([1]; read-out: Relatively Cell inhibition of vehicle control(%), T47D, 20 µM myricetin only (topotecan 0)): 3.54%
inhibition at 100 µM ([1]; read-out: Relatively Cell inhibition of vehicle control(%), T47D, 100 µM myricetin only (cisplatin 0)): 25.4%
inhibition at 100 µM ([1]; read-out: Relatively Cell inhibition of vehicle control(%), T47D, 100 µM myricetin only (doxorubicin 0)): 24.5%
inhibition at 100 µM ([1]; read-out: Relatively Cell inhibition of vehicle control(%), T47D, 100 µM myricetin only (taxol 0)): 30%
inhibition at 100 µM ([1]; read-out: Relatively Cell inhibition of vehicle control(%), T47D, 100 µM myricetin only (topotecan 0)): 22.2%
Relatively Cell inhibition of vehicle control(%) ([2]; Myr 0.8 µM only (cisplatin matrix)): 2.08%
Relatively Cell inhibition of vehicle control(%) ([2]; Myr 0.8 µM only (doxorubicin matrix)): 0.36%
Relatively Cell inhibition of vehicle control(%) ([2]; Myr 0.8 µM only (taxol matrix)): 0.71%
Relatively Cell inhibition of vehicle control(%) ([2]; Myr 0.8 µM only (topotecan matrix)): 4.27%
Relatively Cell inhibition of vehicle control(%) ([2]; Myr 4 µM only (cisplatin matrix)): 2.94%
Relatively Cell inhibition of vehicle control(%) ([2]; Myr 4 µM only (doxorubicin matrix)): 1.70%
Relatively Cell inhibition of vehicle control(%) ([2]; Myr 4 µM only (taxol matrix)): 0.87%
Relatively Cell inhibition of vehicle control(%) ([2]; Myr 4 µM only (topotecan matrix)): 3.31%
Relatively Cell inhibition of vehicle control(%) ([2]; Myr 20 µM only (cisplatin matrix)): 9.41%
Relatively Cell inhibition of vehicle control(%) ([2]; Myr 20 µM only (doxorubicin matrix)): 1.89%
Relatively Cell inhibition of vehicle control(%) ([2]; Myr 20 µM only (taxol matrix)): 7.54%
Relatively Cell inhibition of vehicle control(%) ([2]; Myr 20 µM only (topotecan matrix)): 0.29%
Relatively Cell inhibition of vehicle control(%) ([2]; Myr 100 µM only (cisplatin matrix)): 89.47%
Relatively Cell inhibition of vehicle control(%) ([2]; Myr 100 µM only (doxorubicin matrix)): 91.33%
Relatively Cell inhibition of vehicle control(%) ([2]; Myr 100 µM only (taxol matrix)): 87.91%
Relatively Cell inhibition of vehicle control(%) ([2]; Myr 100 µM only (topotecan matrix)): 87.18%
inhibition at 0.8 µM ([3]; SK-HEP1, read-out: Relatively Cell inhibition of vehicle control, myricetin 0.8 µM only (cisplatin table)): -11.5%
inhibition at 0.8 µM ([3]; SK-HEP1, read-out: Relatively Cell inhibition of vehicle control, myricetin 0.8 µM only (doxorubicin table)): -9.74%
inhibition at 0.8 µM ([3]; SK-HEP1, read-out: Relatively Cell inhibition of vehicle control, myricetin 0.8 µM only (taxol table)): -6.66%
inhibition at 0.8 µM ([3]; SK-HEP1, read-out: Relatively Cell inhibition of vehicle control, myricetin 0.8 µM only (topotecan table)): -19.3%
inhibition at 4 µM ([3]; SK-HEP1, read-out: Relatively Cell inhibition of vehicle control, myricetin 4 µM only (cisplatin table)): 20.2%
inhibition at 4 µM ([3]; SK-HEP1, read-out: Relatively Cell inhibition of vehicle control, myricetin 4 µM only (doxorubicin table)): 32.3%
inhibition at 4 µM ([3]; SK-HEP1, read-out: Relatively Cell inhibition of vehicle control, myricetin 4 µM only (taxol table)): 22.8%
inhibition at 4 µM ([3]; SK-HEP1, read-out: Relatively Cell inhibition of vehicle control, myricetin 4 µM only (topotecan table)): 16.8%
inhibition at 20 µM ([3]; SK-HEP1, read-out: Relatively Cell inhibition of vehicle control, myricetin 20 µM only (cisplatin table)): 92.4%
inhibition at 20 µM ([3]; SK-HEP1, read-out: Relatively Cell inhibition of vehicle control, myricetin 20 µM only (doxorubicin table)): 93.5%
inhibition at 20 µM ([3]; SK-HEP1, read-out: Relatively Cell inhibition of vehicle control, myricetin 20 µM only (taxol table)): 92.8%
inhibition at 20 µM ([3]; SK-HEP1, read-out: Relatively Cell inhibition of vehicle control, myricetin 20 µM only (topotecan table)): 93.2%
inhibition at 100 µM ([3]; SK-HEP1, read-out: Relatively Cell inhibition of vehicle control, myricetin 100 µM only (cisplatin table)): 99.6%
inhibition at 100 µM ([3]; SK-HEP1, read-out: Relatively Cell inhibition of vehicle control, myricetin 100 µM only (doxorubicin table)): 99.4%
inhibition at 100 µM ([3]; SK-HEP1, read-out: Relatively Cell inhibition of vehicle control, myricetin 100 µM only (taxol table)): 99.6%
inhibition at 100 µM ([3]; SK-HEP1, read-out: Relatively Cell inhibition of vehicle control, myricetin 100 µM only (topotecan table)): 99.4%
inhibition at 0.8 µM [4, 6]: -3.15%
inhibition at 4 µM [4, 6]: 0.85%
inhibition at 20 µM [4, 6]: 7.42%
inhibition at 100 µM [4, 6]: 40.3%
Relatively Cell inhibition of vehicle control(%) ([4]; Myr 0.8 µM only (taxol matrix)): -0.98%
Relatively Cell inhibition of vehicle control(%) ([4]; Myr 4 µM only (taxol matrix)): 3.22%
Relatively Cell inhibition of vehicle control(%) ([4]; Myr 20 µM only (taxol matrix)): 9.01%
Relatively Cell inhibition of vehicle control(%) ([4]; Myr 100 µM only (taxol matrix)): 41.11%
inhibition at 0.8 µM ([5]; 786-0, read-out: Relatively Cell inhibition of vehicle control, myricetin 0.8 µM only (cisplatin table)): 0.79%
inhibition at 0.8 µM ([5]; 786-0, read-out: Relatively Cell inhibition of vehicle control, myricetin 0.8 µM only (doxorubicin table)): 0.86%
inhibition at 0.8 µM ([5]; 786-0, read-out: Relatively Cell inhibition of vehicle control, myricetin 0.8 µM only (taxol table)): 0.33%
inhibition at 0.8 µM ([5]; 786-0, read-out: Relatively Cell inhibition of vehicle control, myricetin 0.8 µM only (topotecan table)): 0.12%
inhibition at 4 µM ([5]; 786-0, read-out: Relatively Cell inhibition of vehicle control, myricetin 4 µM only (cisplatin table)): 2.54%
inhibition at 4 µM ([5]; 786-0, read-out: Relatively Cell inhibition of vehicle control, myricetin 4 µM only (doxorubicin table)): 4.47%
inhibition at 4 µM ([5]; 786-0, read-out: Relatively Cell inhibition of vehicle control, myricetin 4 µM only (taxol table)): 2.6%
inhibition at 4 µM ([5]; 786-0, read-out: Relatively Cell inhibition of vehicle control, myricetin 4 µM only (topotecan table)): 4.03%
inhibition at 20 µM ([5]; 786-0, read-out: Relatively Cell inhibition of vehicle control, myricetin 20 µM only (cisplatin table)): 10.8%
inhibition at 20 µM ([5]; 786-0, read-out: Relatively Cell inhibition of vehicle control, myricetin 20 µM only (doxorubicin table)): 11.2%
inhibition at 20 µM ([5]; 786-0, read-out: Relatively Cell inhibition of vehicle control, myricetin 20 µM only (taxol table)): 9.84%
inhibition at 20 µM ([5]; 786-0, read-out: Relatively Cell inhibition of vehicle control, myricetin 20 µM only (topotecan table)): 10.4%
